Assay results published in patent publication US20060178372A1, “Therapeutic quinoline compounds” (AstraZeneca AB, priority 2001, published 2006).

Legend:
[1] = tested on: guinea pigs; assay: learned helplessness test for antidepressant/antianxiety activity; type: in vivo; settings: guinea pig
Text: The utility of the compounds for example to treat depression may be shown via a learned helplessness test in guinea pigs, which is used extensively as correlative to antidepressant activity in humans. The learned helplessness test may be carried out as follows: Seventy male Hartley guinea pigs, each weighing about 350-425 gm are fed ad lib, and are housed under a 12-hour light/dark cycle. The procedure consists of two phases: The induction phase and the avoidance training phase. In the induction phase, subjects are placed into standard shuttle cages (20 L×16 W×21 centimeters H) which are fitted with a grid floor. Electrical stimulation (1.25 mA, 10 sec duration) is delivered to the floor of the cage every 90-sec during 1 hour daily sessions. Subjects have no opportunity to escape or to avoid shocks. Induction is conducted for 2 consecutive days.
In avoidance training, testing is also conducted in the shuttle cages, except that the subjects are not returned to the same chamber in which induction had occurred. Additionally, all cages are fitted with a partition with an arch in the center of the cage, through which animals can pass between the left and right halves of the cage. The procedure employed is a standard shuttle avoidance procedure in which a compound, conditioned stimulus (a 10-sec presentation of a tone and turning on of a lamp on the side of the cage that the guinea pig was occupying) serves to indicate presentation of electrical current to the floor of the cage. Shock is presented for a 5 sec period, 5 sec after initiation of the conditioned stimulus. Entry into the opposite side of the shuttle cage via the arched partition prior to shock onset results in the end of the trial (avoidance response). If shock is delivered, entry into the opposite side of the cage results in termination of the shock and CS (escape). Reversal of learned helplessness in the induction subjects correlates to antidepressant activity of the test compound.
Avoidance training, 45-min in duration, is conducted on 2 consecutive days, beginning 48 hr after the final induction session. Seventy subjects are assigned to 1 of 6 groups of 11-12 animals. The groups are as follows:
1) No induction group. The subjects are placed into the shuttle cages but are not given inescapable shock, the animals are subsequently trained in the avoidance procedure and the vehicle is administered;
2) Induction vehicle control group;
3) Imipramine 17.8 mg/kg;
5) 1 mg/kg compounds; and
Groups 2-6 are given induction and avoidance training sessions. Injections are administered immediately following induction sessions and 1 hour prior to avoidance training sessions. A second injection is administered 7-8 hours following the first injection, for a total of 9 injections administered over 5 days. […]

SMILES: CN1CCN(c2cccc3c2OC(C(=O)Nc2ccc(N4CCOCC4)cc2)CC3)CC1 (racemic) [Example 75, racemic-8-(4-Methyl-piperazin-1-yl)-chroman-2-carboxylic acid (4-morpholin-4-yl-phenyl)-amide]
- melting point: 215 to 216 °C

SMILES: CN1CCN(c2cccc3c2OC(C(=O)Nc2ccc(N4CCOCC4)cc2)CC3=O)CC1 (racemic) [Example 78, racemic-8-(4-methyl-piperazin-1-yl)-4-oxo-chroman-2-carboxylic acid (4-morpholin-4-yl-phenyl)-amide]
- melting point: 215 to 216 °C

SMILES: CN1CCN(c2cccc3c2OC(C(=O)Nc2ccc(N4CCOCC4)cc2)CC3=O)CC1 (single isomer, unassigned) [Example 79, 8-(4-Methyl-piperazin-1-yl)-4-oxo-chroman-2-carboxylic acid (4-morpholin-4-yl-phenyl)-amide (faster running isomer)]
- melting point: 216 °C (dec.)

SMILES: CN1CCN(c2cccc3c2OC(C(=O)Nc2ccc(N4CCOCC4)cc2)CC3=O)CC1 (single isomer, unassigned) [Example 80, 8-(4-Methyl-piperazin-1-yl)-4-oxo-chroman-2-carboxylic acid (4-morpholin-4-yl-phenyl)-amide (slower running isomer)]
- melting point: 215 °C (dec.)

SMILES: CN1CCN(c2cccc3c2OC(C(=O)Nc2ccc(N4CCOCC4)cc2)CC3)CC1 (single isomer, unassigned; (+)) [Example 76, (+)-8-(4-Methyl-piperazin-1-yl)-chroman-2-carboxylic acid (4-morpholin-4-yl-phenyl)-amide]
- melting point: 206 to 207 °C

SMILES: CN1CCN(c2cccc3c2OC(C(=O)Nc2ccc(N4CCOCC4)cc2)CC3)CC1 (single isomer, unassigned; (-)) [Example 77, (−)-8-(4-Methyl-piperazin-1-yl)-chroman-2-carboxylic acid (4-morpholin-4-yl-phenyl)-amide]
- melting point: 205.5 to 207 °C

SMILES: CN1CCN(c2cccc3c(=O)cc(C(=O)Nc4ccc(N5CCOCC5)cc4)oc23)CC1 [Example 1, 8-(4-methyl-1-piperazinyl)-N-[4-(4-morpholinyl)phenyl]-4-oxo-4H-chromene-2-carboxamide]
- melting point: 217 to 218 °C (dec.)

SMILES: CN1CCN(c2cccc3c(=O)cc(-c4nc5ccc(N6CCOCC6)cc5o4)oc23)CC1 [Example 21, 8-(4-Methyl-piperazin-1-yl)-2-(6-morpholin-4-yl-benzooxazol-2-yl)-chromen-4-one]
- melting point: 158.1 to 158.8 °C

SMILES: CN1CCN(c2cccc3c(=O)cc(C(=O)Nc4ccc(N5CCOCC5)cc4O)oc23)CC1 [Example 22, 8-(4-Methyl-piperazin-1-yl)-4-oxo-4H-chromene-2-carboxylic acid (2-hydroxy-4-morpholin-4-yl-phenyl)-amide]
- melting point: 248.4 to 249.6 °C

SMILES: CN1CCN(c2cccc3c(=O)cc(C(=O)N(C)c4ccc(N5CCOCC5)cc4)oc23)CC1 [Example 25, 8-(4-Methylpiperazin-1-yl)-4-oxo-4H-chromene-2-carboxylic acid methyl-(4-morpholin-4-yl-phenyl)amide]
- melting point: 245 to 246.8 °C

SMILES: COc1cc(N2CCN(C)CC2)c2oc(C(=O)Nc3ccc(N4CCOCC4)cc3)cc(=O)c2c1 [Example 31, 6-Methoxy-8-(4-methyl-piperazin-1-yl)-4-oxo-4H-chromene-2-carboxylic acid (4-morpholin-4-yl-phenyl)-amide]
- melting point: 234 to 236 °C
- activity in the learned helplessness assay [1]: demonstrate activity

SMILES: CCC(=O)N1CCN(c2ccc(NC(=O)c3cc(=O)c4cc(OC)cc(N5CCN(C)CC5)c4o3)cc2)CC1 [Example 44, 6-Methoxy-8-(4-methyl-piperazin-1-yl)-4-oxo-4H-chromene-2-carboxylic acid [4-(4-propionyl-piperazin-1-yl)-phenyl]-amide]
- activity in the learned helplessness assay [1]: demonstrate activity

SMILES: COc1cc(N2CCN(C)CC2)c2oc(C(=O)Nc3ccc(N4CCN(C(=O)CCO)CC4)cc3)cc(=O)c2c1 [Example 68, 6-Methoxy-8-(4-methyl-piperazin-1-yl)-4-oxo-4H-chromene-2-carboxylic acid {4-[4-(3-hydroxy-propanoyl)-piperazin-1-yl]-phenyl}-amide]
- melting point: 195 to 197 °C

SMILES: CCS(=O)(=O)N1CCN(c2ccc(NC(=O)c3cc(=O)c4cc(F)cc(N5CCN(C)CC5)c4o3)cc2)CC1 [Example 71, 6-Fluoro-8-(4-methyl-piperazin-1-yl)-4-oxo-4H-chromene-2-carboxylic acid [4-(4-ethane sulfonyl-piperazin-1-yl)-phenyl]-amide]
- melting point: 233 to 234 °C
- activity in the learned helplessness assay [1]: demonstrate activity

SMILES: CCC(=O)N1CCN(c2ccc(NC(=O)c3cc(=O)c4cc(F)cc(N5CCN(C)CC5)c4o3)cc2)CC1 [Example 72, 6-Fluoro-8-(4-methyl-piperazin-1-yl)-4-oxo-4H-chromene-2-carboxylic acid [4-(4-propionyl-piperazin-1-yl)-phenyl]-amide]
- activity in the learned helplessness assay [1]: demonstrate activity

SMILES: CN1CCN(c2cc(F)cc3c(=O)cc(C(=O)Nc4ccc(N5CCN(C(=O)CCO)CC5)cc4)oc23)CC1 [Example 73, 6-Fluoro-8-(4-methyl-piperazin-1-yl)-4-oxo-4H-chromene-2-carboxylic acid {4-[4-(3-hydroxy-propanoyl)-piperazin-1-yl]-phenyl}-amide]
- melting point: 195 to 199 °C

SMILES: CCNC(=O)N1CCN(c2ccc(NC(=O)c3cc(=O)c4cc(F)cc(N5CCN(C)CC5)c4o3)cc2)CC1 [Example 81, 4-[4-({1-[6-Fluoro-8-(4-methyl-piperazin-1-yl)-4-oxo-4H-chromen-2-yl]-methanoyl}-amino)-phenyl]-piperazine-1-carboxylic acid ethylamide]
- melting point: 236 to 238 °C
